Biological target: lysozyme (Gallus gallus, UniProt P00698)
Assay: Relative inhibition of lysozyme (lysis of Micrococcus lysodeikticus, absorbance at 450 nm)
Format: biochemical
Settings: Micrococcus lysodeikticus substrate, phosphate buffer pH 6.2, 20° C; for IC50: read-out: I50; for Imax: maximum inhibition; for concentration at maximum inhibition: concentration at Imax
Description: This example describes estimation of relative inhibition of lysozyme by polyvalent oligomer containing NAG
1.5 % w/v stock solutions of oligomer containing NAG was prepared in 0.0066 M phosphate buffer pH 6.2 containing 0.0154 m sodium chloride and 0.008 M sodium azide. One milliliter of stock solution containing different ligand concentration was mixed with 1.6 ml of 78 µg1ml of Micrococcus lysodeikticus in a 3-ml capacity lass cuvette. The mixture was incubated for 5 minutes at 20° C. To this mixture 0.1 ml of lysozyme (27 µg1ml) was added and mixed thoroughly. The absorbance at 450 nm (Δ450) was recorded for 30 seconds. A blank reading without the polymer ligand was noted and the change in the absorbance per second was calculated.

Chain of lysozyme (P00698 19-147): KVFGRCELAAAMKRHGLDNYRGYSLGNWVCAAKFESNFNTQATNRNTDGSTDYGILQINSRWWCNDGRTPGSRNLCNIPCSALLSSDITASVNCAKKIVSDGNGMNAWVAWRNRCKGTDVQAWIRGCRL

| Compound | IC50 | Imax | concentration at maximum inhibition |
| --- | --- | --- | --- |
| C=CC(=O)OCC1OC(O)C(NC(C)=O)C(O)C1O (stereo not shown) [Ac .NAG, Acryloyl N-Acetyl Glucosamine] | 14.8 mM | 50.00 |  |
| Methacryloyl N-Acetyl Glucosamine [M.Ac. NAG] | 18.1 mM | 71.89 | 21.2 mM |
| CC(=O)N[C@H]1C(O)O[C@H](CO)[C@@H](O)[C@@H]1O (stereo partly shown) [NAG, N-Acetyl Glucosamine] |  | 55.29 | 92.50 mM |

Source: EP1699833B1, “OLIGOMERS CONTAINING N-ACETYL GLUCOSAMINE” (Council of Scientific and Industrial Research, priority 2003, dated 2005)
